Results from patent US20260365671A1, “HETEROCYCLIC COMPOUND” (Takeda Pharmaceutical Company Limited, priority 2022, published 2026).

What was measured:
NF-κB pathway = experiment: TNF-α assay (THP-1 cells differentiated to macrophages with IFN-γ, NF-κB pathway activated with LPS; ELISA); type: cell-based, Human; conditions: Homo sapiens, THP-1, THP-1 macrophages, compound 30 min, 50 ng/mL LPS 3 hours
How it was run: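 THP-1 cells differentiated with 25 ng/mL IFN-γ for 24 h, then 30 min with compounds in serum-free medium. NF-κB activated with 50 ng/mL LPS, 3 h at 37 °C. Supernatant TNF-α by ELISA; IC50 from four-parameter logistic fit of % inhibition.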

NLRP3 inflammasome = target: T1, NLRP3 inflammasome (Homo sapiens, UniProt Q96P20); experiment: IL-1β TR-FRET assay (THP-1 cells differentiated to macrophages with IFN-γ, LPS primed, ATP activated; HTRF); type: cell-based; conditions: THP-1 macrophages, 50 ng/mL LPS priming, compound 30 min, 20 mM ATP 2 hours
T1 construct: IL-1beta HTRF
How it was run: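 THP-1 cells differentiated with 25 ng/mL IFN-γ for 24 h, primed with 50 ng/mL LPS in serum-free medium for 24 h, then treated with compounds for 30 min before 20 mM ATP activation for 2 h at 37 °C. Secreted IL-1β quantified by HTRF; IC50 from logistic fit of % inhibition.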

T1 sequence (Q96P20 whole entry): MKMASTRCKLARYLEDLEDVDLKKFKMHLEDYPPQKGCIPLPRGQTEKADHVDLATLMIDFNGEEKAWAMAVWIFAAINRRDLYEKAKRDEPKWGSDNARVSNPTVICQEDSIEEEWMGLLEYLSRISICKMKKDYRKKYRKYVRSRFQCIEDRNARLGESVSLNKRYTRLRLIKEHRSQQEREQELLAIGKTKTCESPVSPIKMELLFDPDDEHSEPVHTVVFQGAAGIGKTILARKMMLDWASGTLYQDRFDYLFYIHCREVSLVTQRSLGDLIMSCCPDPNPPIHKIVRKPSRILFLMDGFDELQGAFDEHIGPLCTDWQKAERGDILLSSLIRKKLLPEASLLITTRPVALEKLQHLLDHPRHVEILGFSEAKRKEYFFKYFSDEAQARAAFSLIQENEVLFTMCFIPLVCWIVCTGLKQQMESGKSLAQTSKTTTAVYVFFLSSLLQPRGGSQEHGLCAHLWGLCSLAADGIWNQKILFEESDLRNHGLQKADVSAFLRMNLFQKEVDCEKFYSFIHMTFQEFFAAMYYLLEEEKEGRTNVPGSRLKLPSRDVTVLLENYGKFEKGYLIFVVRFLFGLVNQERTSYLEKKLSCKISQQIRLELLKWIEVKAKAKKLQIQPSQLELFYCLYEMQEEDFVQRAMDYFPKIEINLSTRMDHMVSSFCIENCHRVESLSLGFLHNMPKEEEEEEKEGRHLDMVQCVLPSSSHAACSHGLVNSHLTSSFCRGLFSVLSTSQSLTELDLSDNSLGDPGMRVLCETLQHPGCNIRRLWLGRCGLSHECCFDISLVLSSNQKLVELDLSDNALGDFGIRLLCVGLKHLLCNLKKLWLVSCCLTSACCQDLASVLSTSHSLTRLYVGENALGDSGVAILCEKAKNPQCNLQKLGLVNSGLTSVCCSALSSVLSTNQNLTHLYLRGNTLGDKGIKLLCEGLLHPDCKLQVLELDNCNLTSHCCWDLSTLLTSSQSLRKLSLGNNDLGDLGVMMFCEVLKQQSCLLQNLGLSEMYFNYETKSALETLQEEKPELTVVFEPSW

| IC50 (NF-κB pathway) [nM] | IC50 (NLRP3 inflammasome) [nM] | Compound |
| --- | --- | --- |
| > 30000 | 11 | CCN1C[C@H](F)C[C@@H](Nc2nc3nn(-c4c(C)cc(C(F)F)cc4O)cc3s2)C1 [Example 16, 5-(difluoromethyl)-2-(5-{[(3R,5R)-1-ethyl-5-fluoropiperidin-3-yl]amino}-2H-pyrazolo[3,4-d][1,3]thiazol-2-yl)-3-methylphenol] |
| > 30000 | 990 | COC(=O)N1CCCC(Nc2nc3nn(-c4c(C)cc(C)cc4O)cc3s2)C1 (centres unmarked) [Example 110, methyl 3-{[2-(2-hydroxy-4,6-dimethylphenyl)-2H-pyrazolo[3,4-d][1,3]thiazol-5-yl]amino}piperidine-1-carboxylate] |
| > 10000 | 980 | Cc1cc(F)cc(O)c1-n1cc2sc(N[C@@H]3CCCC[C@H]3O)nc2n1 [Example 6, 5-fluoro-2-(5-{[(1R,2R)-2-hydroxycyclohexyl]amino}-2H-pyrazolo[3,4-d][1,3]thiazol-2-yl)-3-methylphenol] |
| > 30000 | 210 | CCN1C[C@@H](F)[C@@H](Nc2nc3nn(-c4c(C)cc(C)cc4O)cc3s2)C1 (racemic) [Example 23, racemic mixture of 2-(5-{[(3R,4S)-1-ethyl-4-fluoropyrrolidin-3-yl]amino}-2H-pyrazolo[3,4-d][1,3]thiazol-2-yl)-3,5-dimethylphenol and 2-(5-{[(3S,4R)-1-ethyl-4-fluoropyrrolidin-3-yl]amino}-2H-pyrazolo[3,4-d][1,3]thiazol-2-yl)-3,5-dimethylphenol] |
| > 30000 | 120 | COCCN(c1nc2nn(-c3c(C)cc(C)cc3O)cc2s1)[C@@H]1CCCNC1 [Example 37, 2-(5-{(2-methoxyethyl)[(3R)-piperidin-3-yl]amino}-2H-pyrazolo[3,4-d][1,3]thiazol-2-yl)-3,5-dimethylphenol] |
| > 30000 | 1300 | Cc1cc(C)c(-n2cc3sc(N(C)C)nc3n2)c(O)c1 [Example 49, 2-[5-(dimethylamino)-2H-pyrazolo[3,4-d][1,3]thiazol-2-yl]-3,5-dimethylphenol] |
| > 30000 | 670 | Cc1cc(C)c(-n2cc3sc(NCC(O)C(F)(F)F)nc3n2)c(O)c1 (centres unmarked) [Example 163, 3,5-dimethyl-2-{5-[(3,3,3-trifluoro-2-hydroxypropyl)amino]-2H-pyrazolo[3,4-d][1,3]thiazol-2-yl}phenol] |
| > 10000 | 1300 | Cc1cc(C)c(-n2cc3sc(NC[C@H]4CCCO4)nc3n2)c(O)c1 [Example 117, 3,5-dimethyl-2-[5-({[(2R)-oxolan-2-yl]methyl}amino)-2H-pyrazolo[3,4-d][1,3]thiazol-2-yl]phenol] |
| > 30000 | 680 | Cc1cc(C)c(-n2cc3sc(NCCN(C)C)nc3n2)c(O)c1 [Example 53, 2-(5-{[2-(dimethylamino)ethyl]amino}-2H-pyrazolo[3,4-d][1,3]thiazol-2-yl)-3,5-dimethylphenol] |
| > 30000 | 1900 | Cc1cc(C)c(-n2cc3sc(N[C@H]4CCN(C(=O)OC5CC5)C4)nc3n2)c(O)c1 [Example 154, cyclopropyl (3S)-3-{[2-(2-hydroxy-4,6-dimethylphenyl)-2H-pyrazolo[3,4-d][1,3]thiazol-5-yl]amino}pyrrolidine-1-carboxylate] |
| > 30000 | 25 | Cc1cc(C(F)F)cc(O)c1-n1cc2sc(N[C@@H]3C[C@@H](F)CN(C)C3)nc2n1 [Example 13, 5-(difluoromethyl)-2-(5-{[(3R,5R)-5-fluoro-1-methylpiperidin-3-yl]amino}-2H-pyrazolo[3,4-d][1,3]thiazol-2-yl)-3-methylphenol] |
| > 30000 | 1000 | CCC(=O)N1CCC(Nc2nc3nn(-c4c(C)cc(C)cc4O)cc3s2)CC1 [Example 132, 1-(4-{[2-(2-hydroxy-4,6-dimethylphenyl)-2H-pyrazolo[3,4-d][1,3]thiazol-5-yl]amino}piperidin-1-yl)propan-1-one] |
| > 30000 | 3.7 | Cc1cc(O)c(-n2cc3sc(N[C@@H]4C[C@@H](F)CN(C)C4)nc3n2)c(CC(F)F)c1 [Example 175, 3-(2,2-difluoroethyl)-2-(5-{[(3R,5R)-5-fluoro-1-methylpiperidin-3-yl]amino}-2H-pyrazolo[3,4-d][1,3]thiazol-2-yl)-5-methylphenol] |
| > 30000 | 610 | CC(=O)N1CCCC(Nc2nc3nn(-c4c(C)cc(C)cc4O)cc3s2)C1 (centres unmarked) [Example 108, 1-(3-{[2-(2-hydroxy-4,6-dimethylphenyl)-2H-pyrazolo[3,4-d][1,3]thiazol-5-yl]amino}piperidin-1-yl)ethan-1-one] |
| > 10000 | 540 | Cc1cc(C)c(-n2cc3sc(NC4CCN(C(=O)C(F)F)C4)nc3n2)c(O)c1 (centres unmarked) [Example 90, 2,2-difluoro-1-(3-{[2-(2-hydroxy-4,6-dimethylphenyl)-2H-pyrazolo[3,4-d][1,3]thiazol-5-yl]amino}pyrrolidin-1-yl)ethan-1-one] |
| > 10000 | 750 | Cc1cc(C)c(-n2cc3sc(NC[C@@H](C)OC(F)F)nc3n2)c(O)c1 [Example 172, 2-(5-{[(2R)-2-(difluoromethoxy)propyl]amino}-2H-pyrazolo[3,4-d][1,3]thiazol-2-yl)-3,5-dimethylphenol] |
| > 30000 | 370 | CNC(=O)N1C[C@H](Nc2nc3nn(-c4c(C)cc(C)cc4O)cc3s2)[C@@H](F)C1 (racemic) [Example 119, racemic mixture of (3R,4R)-3-fluoro-4-{[2-(2-hydroxy-4,6-dimethylphenyl)-2H-pyrazolo[3,4-d][1,3]thiazol-5-yl]amino}-N-methylpyrrolidine-1-carboxamide and (3S,4S)-3-fluoro-4-{[2-(2-hydroxy-4,6-dimethylphenyl)-2H-pyrazolo[3,4-d][1,3]thiazol-5-yl]amino}-N-methylpyrrolidine-1-carboxamide] |
| > 30000 | 340 | CCNc1nc2nn(-c3c(C)cc(C)cc3O)cc2s1 [Example 181, 2-[5-(ethylamino)-2H-pyrazolo[3,4-d][1,3]thiazol-2-yl]-3,5-dimethylphenol] |
| > 30000 | 94 | Cc1cc(C)c(-n2cc3sc(N[C@@H]4C[C@H](F)CN(C)C4)nc3n2)c(O)c1 [Example 179, 2-(5-{[(3R,5S)-5-fluoro-1-methylpiperidin-3-yl]amino}-2H-pyrazolo[3,4-d][1,3]thiazol-2-yl)-3,5-dimethylphenol] |
| > 30000 | 440 | CC(=O)NCCNc1nc2nn(-c3c(C)cc(C)cc3O)cc2s1 [Example 38, N-(2-{[2-(2-hydroxy-4,6-dimethylphenyl)-2H-pyrazolo[3,4-d][1,3]thiazol-5-yl]amino}ethyl)acetamide] |
| > 30000 | 14 | Cc1cc(C)c(-n2cc3sc(N[C@@H]4CCCN(CCF)C4)nc3n2)c(O)c1 [Example 42, 2-(5-{[(3R)-1-(2-fluoroethyl)piperidin-3-yl]amino}-2H-pyrazolo[3,4-d][1,3]thiazol-2-yl)-3,5-dimethylphenol] |
| > 30000 | 620 | Cc1cc(C)c(-n2cc3sc(NC4CCN(S(C)(=O)=O)C4)nc3n2)c(O)c1 (centres unmarked) [Example 100, 2-(5-{[1-(methanesulfonyl)pyrrolidin-3-yl]amino}-2H-pyrazolo[3,4-d][1,3]thiazol-2-yl)-3,5-dimethylphenol] |
